Laboratory results reported in ChEMBL document CHEMBL1201862, “PubChem BioAssay data set” (2004).
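Growth conditions: 96-well plates. Treatment: test compound, 48 hours, 5 concentrations. Analysis: linear interpolation between bracketing concentrations; unreached endpoints set to highest concentration. Here, GI50 denotes the concentration required for 50% inhibition of growth.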 The source made the active and inactive calls. No stated cut-off is given here; in the data, active = GI50 up to about 1.1 µM and inactive = higher.

Assays:
Test in all cases: NCI anticancer screen, dose series, 48 h
SK-MEL-28 = system: SK-MEL-28
KM-20L2 = system: KM-20L2
UO-31 = system: UO-31
RXF 393 = system: RXF 393
SF-268 = system: SF-268
RXF 631 = system: RXF 631
K562 = system: K562
HL-60 = system: HL-60
M19-MEL = system: M19-MEL
CAKI-1 = system: CAKI-1
LOX IMVI = system: LOX IMVI
SNB-19 = system: SNB-19
HCC 2998 = system: HCC 2998
A498 = system: A498
NCI-H522 = system: NCI-H522
SNB-75 = system: SNB-75
SF-295 = system: SF-295
SW-620 = system: SW-620
MOLT-4 = system: MOLT-4
SK-OV-3 = system: SK-OV-3
NCI-H23 = system: NCI-H23
SK-MEL-5 = system: SK-MEL-5
OVCAR-8 = system: OVCAR-8
A549 = system: A549
OVCAR-3 = system: OVCAR-3
SK-MEL-2 = system: SK-MEL-2
EKVX = system: EKVX
Malme-3M = system: Malme-3M
SN12C = system: SN12C
DLD-1 = system: DLD-1
UACC-62 = system: UACC-62
SNB-78 = system: SNB-78
KM12 = system: KM12
RPMI-8226 = system: RPMI-8226
786-0 = system: 786-0
DMS-273 = system: DMS-273
HOP-18 = system: HOP-18
HOP-92 = system: HOP-92
UACC-257 = system: UACC-257
NCI-H460 = system: NCI-H460
HOP-62 = system: HOP-62
COLO 205 = system: COLO 205
HCT-15 = system: HCT-15
OVCAR-5 = system: OVCAR-5
IGROV-1 = system: IGROV-1
U-251 = system: U-251
ACHN = system: ACHN
TK-10 = system: TK-10
SF-539 = system: SF-539
CCRF-CEM = system: CCRF-CEM
HT-29 = system: HT-29
M14 = system: M14
DMS-114 = system: DMS-114
HCT-116 = system: HCT-116
NCI-H226 = system: NCI-H226
LXFL 529 = system: LXFL 529
OVCAR-4 = system: OVCAR-4

Measured: GI50

Cc1nc(-n2nc(-c3ccccc3)cc2-c2ccccc2)sc1C(=O)/C=C/c1ccccc1
inactive: SK-MEL-28 > 100 µM | KM-20L2 > 100 µM | UO-31 17.9 µM | RXF 393 > 100 µM | SF-268 > 100 µM | RXF 631 > 100 µM | K562 49.8 µM | HL-60 60.4 µM | M19-MEL > 100 µM | CAKI-1 9.79 µM | LOX IMVI > 100 µM | SNB-19 > 100 µM | HCC 2998 > 100 µM | A498 > 100 µM | NCI-H522 33.1 µM | SNB-75 6.58 µM | SF-295 > 100 µM | SW-620 59 µM | MOLT-4 31.8 µM | SK-OV-3 > 100 µM | NCI-H23 > 100 µM | SK-MEL-5 23.5 µM | OVCAR-8 > 100 µM | A549 75.3 µM | OVCAR-3 81.1 µM | SK-MEL-2 > 100 µM | EKVX 32.9 µM | Malme-3M > 100 µM | SN12C > 100 µM | DLD-1 > 100 µM | UACC-62 > 100 µM | SNB-78 > 100 µM | KM12 84.3 µM | RPMI-8226 > 100 µM | 786-0 > 100 µM | DMS-273 > 100 µM | HOP-18 > 100 µM | HOP-92 70.1 µM | UACC-257 > 100 µM | NCI-H460 > 100 µM | HOP-62 > 100 µM | COLO 205 > 100 µM | OVCAR-5 > 100 µM | IGROV-1 75.5 µM | U-251 > 100 µM | ACHN > 100 µM | TK-10 > 100 µM | SF-539 > 100 µM | CCRF-CEM 72.9 µM | HT-29 > 100 µM
> 100 µM: HCT-15

CCC1(O)CC(c2ccccc2)N(C)C(c2ccccc2)C1 (stereo not given)
inactive: SK-MEL-28 > 100 µM | KM-20L2 > 100 µM | UO-31 > 100 µM | M14 > 100 µM | RXF 393 > 100 µM | SF-268 > 100 µM | RXF 631 > 100 µM | K562 94.2 µM | DMS-114 > 100 µM | HL-60 69.2 µM | M19-MEL > 100 µM | CAKI-1 > 100 µM | LOX IMVI > 100 µM | SNB-19 > 100 µM | HCC 2998 > 100 µM | A498 > 100 µM | NCI-H522 94 µM | SNB-75 > 100 µM | SF-295 > 100 µM | SW-620 > 100 µM | MOLT-4 > 100 µM | SK-OV-3 > 100 µM | NCI-H23 > 100 µM | SK-MEL-5 > 100 µM | OVCAR-8 > 100 µM | A549 > 100 µM | OVCAR-3 > 100 µM | SK-MEL-2 > 100 µM | EKVX > 100 µM | Malme-3M > 100 µM | SN12C > 100 µM | HCT-116 86.9 µM | DLD-1 > 100 µM | UACC-62 > 100 µM | SNB-78 > 100 µM | KM12 > 100 µM | 786-0 > 100 µM | DMS-273 > 100 µM | NCI-H226 > 100 µM | HOP-92 > 100 µM | UACC-257 > 100 µM | NCI-H460 > 100 µM | LXFL 529 > 100 µM | HOP-62 > 100 µM | COLO 205 > 100 µM | OVCAR-4 > 100 µM | OVCAR-5 > 100 µM | IGROV-1 > 100 µM | U-251 > 100 µM | ACHN > 100 µM | TK-10 > 100 µM | SF-539 > 100 µM | CCRF-CEM > 100 µM | HT-29 97.9 µM
> 100 µM: HCT-15

CC[C@@]1(O)C[C@H](OC2CC(N(C)C)C(OC3CC(O)C(OC4CCC(=O)C(C)O4)C(C)O3)C(C)O2)c2c(cc3c(c2O)C(=O)c2c(O)cccc2C3=O)[C@H]1C(=O)OC (stereo not given in full)
active: SK-MEL-28 0.0443 µM | KM-20L2 0.0247 µM | RXF 631 0.00711 µM | HL-60 0.0231 µM | DLD-1 0.0238 µM | RPMI-8226 0.0243 µM | HOP-18 0.0458 µM | LXFL 529 0.00776 µM | CCRF-CEM 0.0229 µM
